Experiments:
Assay type in all cases: in vivo
[1] = test system: Rüben; test: Pre-emergence test; conditions: % damage vs untreated control after three weeks
Source text: (§1) Pre-emergence-Test Lösungsmittel: 5 Gewichtsteile Aceton Emulgator: 1 Gewichtsteil Alkylarylpolyglycolether
(§2) Zur Herstellung einer zweckmäßigen Wirkstoffzubereitung vermischt man 1 Gewichtsteil Wirkstoff mit der angegebenen Menge Lösungsmittel, gibt die angegebene Menge Emulgator zu und verdünnt das Konzentrat mit Wasser auf die gewünschte Konzentration.
(§3) Samen der Testpflanzen werden in normalen Boden ausgesät und nach 24 Stunden mit der Wirkstoffzubereitung begossen. Dabei hält man die Wassermenge pro Flächeneinheit zweckmäßigerweise konstant. Die Wirkstoffkonzentration in der Zubereitung spielt keine Rolle, entscheidend ist nur die Aufwandmenge des Wirkstoffs pro Flächeneinheit. Nach drei Wochen wird der Schädigungsgrad der Pflanzen bonitiert in % Schädigung im Vergleich zur Entwicklung der unbehandelten Kontrolle. Es bedeuten: • 0 % = keine Wirkung (wie unbehandelte Kontrolle) 100 % = totale Vernichtung

[2] = test system: Mais; test: Pre-emergence test; conditions: % damage vs untreated control after three weeks
Source text: as §1, §2, §3

[3] = test system: Soja; test: Pre-emergence test; conditions: % damage vs untreated control after three weeks
Source text: as §1, §2, §3

[4] = test system: Dicotyledoneae; test: Pre-emergence test; conditions: average effect on several dicots, % damage vs untreated control after three weeks
Source text: as §1, §2, §3

[5] = test system: Monocotyledoneae; test: Pre-emergence test; conditions: average effect on several monocots, % damage vs untreated control after three weeks
Source text: as §1, §2, §3

[6] = test system: Testpflanzen; test: Post-emergence test, overall comparison with racemates; conditions: compared with the corresponding racemic compounds (A) and (B)
Source text: (§4) Post-emergence-Test Lösungsmittel: 5 Gewichtsteile Aceton Emulgator : 1 Gewichtsteil Alkylarylpolyglycolether
as §2
(§5) Mit der Wirkstoffzubereitung spritzt man Testpflanzen, welche eine Höhe von 5 - 15 cm haben so, daß die jeweils gewünschten Wirkstoffmengen pro Flächeneinheit ausgebracht werden. Die Konzentration der Spritzbrühe wird so gewählt, daß in 2000 1 Wasser/ha die jeweils gewünschten Wirkstoffmengen ausgebracht werden. Nach drei Wochen wird der Schädigungsgrad der Pflanzen bonitiert in % Schädigung im Vergleich zur Entwicklung der unbehandelten Kontrolle. Es bedeuten: • 0 % = keine Wirkung (wie unbehandelte Kontrolle) 100 % = totale Vernichtung

[7] = test system: Rüben; test: Post-emergence test; conditions: % damage vs untreated control after three weeks
Source text: as §4, §2, §5

[8] = test system: Mais; test: Post-emergence test; conditions: % damage vs untreated control after three weeks
Source text: as §4, §2, §5

[9] = test system: Soja; test: Post-emergence test; conditions: % damage vs untreated control after three weeks
Source text: as §4, §2, §5

[10] = test system: Dicotyledoneae; test: Post-emergence test; conditions: average effect on several dicots, % damage vs untreated control after three weeks
Source text: as §4, §2, §5

[11] = test system: Monocotyledoneae; test: Post-emergence test; conditions: average effect on several monocots, % damage vs untreated control after three weeks
Source text: as §4, §2, §5

[12] = test system: Testpflanzen; test: Pre-emergence test, overall comparison with racemates; conditions: compared with the corresponding racemic compounds (A) and (B)
Source text: as §1, §2, §3

Row | Structure (SMILES) | herbizide Wirksamkeit [6] | herbizide Wirksamkeit [12] | Wirkung (in %) Rüben ([1]; 1 kg/ha) [%] | Wirkung (in %) Mais ([2]; 1 kg/ha) [%] | Wirkung (in %) Soja ([3]; 1 kg/ha) [%] | Wirkung (in %) Dicotyledoneae ([4]; 1 kg/ha) | Wirkung (in %) Monocotyledoneae ([5]; 1 kg/ha) | Wirkung (in %) Rüben ([7]; 1 kg/ha) [%] | Wirkung (in %) Mais ([8]; 1 kg/ha) [%] | Wirkung (in %) Soja ([9]; 1 kg/ha) [%] | Wirkung (in %) Dicotyledoneae ([10]; 1 kg/ha) | Wirkung (in %) Monocotyledoneae ([11]; 1 kg/ha) | other results
1 | CCOC(=O)[C@H](C)OC(=O)c1cc(Oc2ccc(C(F)(F)F)cc2Cl)ccc1[N+](=O)[O-] [(2), 5-(2-Chlor-4-trifluormethyl-phenoxy)-2-nitro-benzoesäure-(1-ethoxycarbonyl-ethyl)-ester] | bessere herbizide Wirksamkeit | bessere herbizide Wirksamkeit | – | – | – | – | – | – | – | – | – | – | Wirkung (in %) Rüben ([1]; 0,51 kg/ha): 99%; Wirkung (in %) Mais ([2]; 0,51 kg/ha): 0%; Wirkung (in %) Soja ([3]; 0,51 kg/ha): 0%; Wirkung (in %) Dicotyledoneae ([4]; 0,51 kg/ha): 77,1%; Wirkung (in %) Monocotyledoneae ([5]; 0,51 kg/ha): 74,1%; Wirkung (in %) Rüben ([7]; 0,51 kg/ha): 100%; Wirkung (in %) Mais ([8]; 0,51 kg/ha): 100%; Wirkung (in %) Soja ([9]; 0,51 kg/ha): 99%; Wirkung (in %) Dicotyledoneae ([10]; 0,51 kg/ha): 99,9%; Wirkung (in %) Monocotyledoneae ([11]; 0,51 kg/ha): 83,3%
2 | CCOC(=O)[C@H](C)OC(=O)c1cc(Oc2c(Cl)cc(C(F)(F)F)cc2Cl)ccc1[N+](=O)[O-] [(1), 5-(2,6-Dichlor-4-trifluor-methyl-phenoxy)-2-nitrobenzoesäure-(1-ethoxycarbonyl-ethyl)-ester] | bessere herbizide Wirksamkeit | bessere herbizide Wirksamkeit | – | – | – | – | – | – | – | – | – | – | Wirkung (in %) Rüben ([1]; 0,45 kg/ha): 99%; Wirkung (in %) Mais ([2]; 0,45 kg/ha): 0%; Wirkung (in %) Soja ([3]; 0,45 kg/ha): 10%; Wirkung (in %) Dicotyledoneae ([4]; 0,45 kg/ha): 88,6%; Wirkung (in %) Monocotyledoneae ([5]; 0,45 kg/ha): 42,1%; Wirkung (in %) Rüben ([7]; 0,45 kg/ha): 100%; Wirkung (in %) Mais ([8]; 0,45 kg/ha): 95%; Wirkung (in %) Soja ([9]; 0,45 kg/ha): 100%; Wirkung (in %) Dicotyledoneae ([10]; 0,45 kg/ha): 99,9%; Wirkung (in %) Monocotyledoneae ([11]; 0,45 kg/ha): 89,9%
3 | CCOC(=O)C(C)OC(=O)c1cc(Oc2ccc(C(F)(F)F)cc2Cl)ccc1[N+](=O)[O-] (racemic) [(B), 5-(2-Chlor-4-trifluormethyl-phenoxy)-2-nitro-benzoesäure-(1-ethoxycarbonylethyl)-ester, reference compound] | – | – | 100 | 0 | 0 | 81,4% | 61,4% | 100 | 95 | 99 | 99,9% | 89,1% | –
4 | CCOC(=O)C(C)OC(=O)c1cc(Oc2c(Cl)cc(C(F)(F)F)cc2Cl)ccc1[N+](=O)[O-] (racemic) [(A), 5-(2,6-Dichlor-4-trifluormethyl-phenoxy)-2-nitro-benzoesäure-(1-ethoxycarbonyl-ethyl)-ester, reference compound] | – | – | 100 | 10 | 40 | 95,6% | 69,3% | 100 | 95 | 100 | 100% | 92% | –

— patent EP0089538A1, “Optically active derivatives of phenoxy-benzoic acid, process for their preparation and their use as herbicides” (BAYER AG, priority 1982, dated 1983)
